Measured values as given in ChEMBL document CHEMBL4387793, “Styrenes from the Seeds of Atalantia monophylla” (J Nat Prod, 2019).

Key:
HepG2 = assay: Cytotoxicity against human HepG2 cells by SRB assay; type: functional, cell-based
[1] = Cytotoxicity against human KKU-M156 cells by SRB assay; type: functional, cell-based

Row | Structure (SMILES) | IC50 (HepG2) [µM] | IC50 [1] [µM]
1 | COc1cc(OC)c([C@H]2CC[C@H]2c2c(OC)cc(OC)cc2OC)c(OC)c1 | < 10 | < 10
2 | COc1cc(OC)c2c(c1)O[C@@H](c1c(OC)cc(OC)cc1OC)C[C@@H]2C | < 10 | < 10
3 | COc1cc(OC)c(/C=C/[C@H](C)c2c(OC)cc(OC)cc2OC)c(OC)c1 | < 10 | < 10
4 | COc1cc(OC)c2c(c1)O[C@@H](c1c(O)cc(OC)cc1OC)C[C@@H]2C | < 10 | < 10
